In paper PMC2810868 (Nature, 2009):
pIC50: −log10 of the molar value.

Experiments:
[1] = biological target: T1, PYL2 (Arabidopsis thaliana, UniProt O80992); test: crystal structure of PYL2-ABA; type: biochemical
T1 sequence (O80992 14-188): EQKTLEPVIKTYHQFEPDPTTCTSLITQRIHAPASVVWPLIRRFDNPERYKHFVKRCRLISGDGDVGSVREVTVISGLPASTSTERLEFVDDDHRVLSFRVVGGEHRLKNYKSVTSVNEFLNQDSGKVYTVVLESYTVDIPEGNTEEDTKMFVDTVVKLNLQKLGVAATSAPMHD
T1 sequence (Q9CAJ0 172-511 partner): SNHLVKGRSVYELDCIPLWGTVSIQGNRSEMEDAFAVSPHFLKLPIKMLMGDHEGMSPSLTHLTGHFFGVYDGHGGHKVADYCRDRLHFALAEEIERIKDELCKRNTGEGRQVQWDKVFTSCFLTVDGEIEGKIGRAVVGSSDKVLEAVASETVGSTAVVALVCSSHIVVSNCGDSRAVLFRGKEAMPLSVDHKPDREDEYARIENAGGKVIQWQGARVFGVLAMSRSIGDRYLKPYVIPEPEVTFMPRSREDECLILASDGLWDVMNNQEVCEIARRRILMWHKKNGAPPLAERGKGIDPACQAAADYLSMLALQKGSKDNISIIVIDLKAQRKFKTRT

[2] = biological target: T2, PYR1(H115A) (Arabidopsis thaliana, UniProt O49686, H115A); test: 1H-15N HSQC NMR with and without S-ABA; type: binding
T2 sequence (O49686 1-191 H115A): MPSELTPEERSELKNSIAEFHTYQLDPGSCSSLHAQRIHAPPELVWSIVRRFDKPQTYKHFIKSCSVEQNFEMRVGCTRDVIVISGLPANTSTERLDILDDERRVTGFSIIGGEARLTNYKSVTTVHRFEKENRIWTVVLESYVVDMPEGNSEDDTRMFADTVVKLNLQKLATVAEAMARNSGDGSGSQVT

- pIC50 [1]: 6.82
SMILES: CC1=CC(=O)CC(C)(C)C1(O)/C=C/C(C)=C\C(=O)O (centres unmarked) [S-ABA]
- 1H-15N HSQC NMR with and without S-ABA [2]: ABA binding is unaltered by the H115A mutation in the PYR1 latch.
